Experimental data reported in US20140135390A1, “Modified Platinum Compounds” (priority 2011, published 2014).

Legend:
[1] = test system: murine breast cancer cells EMT-6; experiment: In vitro cell viability of EMT-6 cells after 48 hours incubation, viable cells counted with a hemocytometer; assay type: cell-based; conditions: 1 μM, 50 μM and 100 μM
Method: A murine breast cancer cells EMT-6 (0.5*10^6 cells/plate) were plated and grown in Dulbecco's Modified Eagle Medium (DMEM) supplemented with 10% FBS, 2% L-Glutamine Solution (200 mM), 2% Pen-Strep Solution (Biological Industries), and […] D-Glucose under regular growth conditions: 5% CO2, and 37.6° C.
After the incubation time, cells were washed with PBS (3 times), harvested using Trypsin-EDTA solution (Biological Industries), and the number of viable cells was counted under microscope using a microscope counting chamber (Hemocytometer).

treated patients = conditions: dose limiting toxicity; cited from earlier work

For `N.N.[Cl][Pt][Cl]` [Cisplatin, cis-diamminedichloroplatinum(II)], the “toxicity to the cells / effect on cell number (FIG. 1)” value [1] is given as “dose-dependent reduction in the cells” and the “sensory neuropathy, share of treated patients” value (treated patients) is given as “more than 20%”.
